Literature values, collected in patent US9433208B2, “Crop oil concentrate adjuvants containing amine surfactants” (Huntsman Petrochemical LLC, priority 2004, dated 2016).
Read-outs that look alike come from different tables or passages of the source.

## CNC(=O)CSP(=S)(OC)OC [Cygon, dimethoate]
Mixed in water of pH 9
  time to lose 50 percent of its pest control power: 48 min
pH of 6
  time to lose 50 percent of its pest control power: 720 min
